Patent publication US9861640B2, “Medicament for treatment of Alzheimer's disease” (KEMPHYS LTD., priority 2013, dated 2018)

Experiments:
CD36 [1] = assay: Immunoblot of CD36 in brains of APP23 mice; format: in vivo, mouse; details: Am80 0.5 and/or HX630 5 mg/kg/d, day 18, whole-cell extracts
Description: APP23 mice begin forming amyloid deposits when they are 6 months old, but memory deficits in the MWM test appear quite early (before 3 months of age). Here, we used 8.5-month-old male APP23 mice and their WT littermates (C57BL/6J). We used stratified random sampling to divide mice (four to six per cage) into four groups to equalize the mean body weight of the study groups: mice given 0.5 mg/kg/d Am80, those given 5 mg/kg/d HX630, those given the mixture of 0.5 mg/kg/d Am80 and 5 mg/kg/d HX630, and those given the vehicle. Am80 and HX630 were suspended in 0.5% (w/v) carboxymethylcellulose solution and were orally administered to mice at 0.5 mg/kg (Am80) or 5 mg/kg (HX630) for 17 consecutive days (once daily at 18:00). Control animals received the same volume of 0.5% (w/v) carboxymethylcellulose solution orally, without the other compounds. We set the 0.5 mg/kg/d dose for Am80 on the basis that this had been found effective in other in vivo studies, such as those by Kawahara et al. and Ishido and Shudo [37]. Higher doses of Am80 (3 mg/kg/d and 6 mg/kg/d) were also orally administered to mice for 17 consecutive days. Animals were weighed once a week. Mice were subjected to behavioral testing on days 15-18 of the first oral administration of the compounds (at 19:00-23:00). On days 15-17 (not day 18), animals received the compounds at 24:00, after behavioral testing. […]

CD36 [2] = assay: Immunoblot of CD36 in rat primary microglia; format: cell-based; details: 5 μM each, 48 h; relative to vehicle-treated cells
Text: Primary microglia (type 1) were harvested from primary mixed glial cell cultures prepared from neonatal Wistar rat pups, as previously reported. Mouse microglial cell line MG5 and mouse glial cell line A1 were maintained as previously described. Mouse neuroblastoma cell line N1E-115 and Neuro 2a (American Type Culture Collection, Manassas, Va., USA) were maintained in Dulbecco's modified Eagle's medium (DMEM) supplemented with 10% fetal bovine serum (FBS), 20 U/ml penicillin (Invitrogen, Gaithersburg, Md., USA), and 20 μg/ml streptomycin (Invitrogen). Primary rat microglia were treated with Am80 (5 μM) and/or HX630 (5 μM) in the presence and absence of GW9662 (10 μM) for 48 h in Eagle's MEM supplemented with 10% FBS and 0.2% glucose. MG5 cells and A1 cells were treated with Am80 (5 μM) and/or HX630 (5 μM) for 48 h in DMEM containing 10% FBS. […]
Rat primary microglia and mouse microglial MG5 cells (5×10^6 cells per 100-mm dish) were homogenized in RIPA buffer [10 mM Hepes-NaOH (pH 7.4) containing 150 mM NaCl, 1 mM EDTA, 1% Triton X-100, 0.5% sodium deoxycholate, 0.1% SDS, 1 mM PMSF, 1 mg/ml leupeptin. […] Bound horseradish peroxidase-labeled antibodies were then detected via chemiluminescence (an ECL kit; Pierce, Rockford, Ill., USA). Protein concentrations were determined with the BCA Protein Assay Reagent (Pierce) and Bradford Protein Assay Reagent (Pierce).

## CN1c2ccccc2N=C(c2ccc(C(=O)O)cc2)c2cc3c(cc21)C(C)(C)CCC3(C)C [HX630, 4-[5H-2,3-(2,5dimethyl-2,5-hexano)-5-methyldibenzo[b,e]-diazepin-11-yl]benzoic acid]
CD36 [1]
  CD36 protein level in brain (immunoblot): increased
CD36 [2]
  CD36 expression in rat primary microglia: 1.3 fold
